In patent US10858356B2, “Pyrazolopyridine derivative having GLP-1 receptor agonist effect” (Chugai Seiyaku Kabushiki Kaisha, priority 2016, dated 2020):
Like-named read-outs stand apart in the source and are kept apart here.

Legend:
Format in all cases: in vivo, cynomolgus monkey
[1] = system: male cynomolgus monkeys; assay: Insulin secretion promoting and blood glucose lowering effects after intravenous glucose
Description: Next, a 50% glucose solution (glucose administration weight to the monkey: 0.5 g/kg) was intravenously administered and a blood sample was collected every 5 min or 10 min to measure the plasma insulin and glucose concentrations. The area under the curve was calculated from the time course of each parameter after the drug administration to evaluate the insulin secretion promoting effect and the blood glucose lowering effect.

[2] = system: male cynomolgus monkeys
[3] = Pharmacokinetics after oral administration; conditions: for Cmax / Tmax / AUC(0-t): male, cynomolgus monkey, plasma, calcium salt hydrate crystal (Sample 162a) suspension, n=2; for AUC(0-t): read-out: AUC0-24 h
Description: The plasma concentrations of the drug were determined by liquid chromatography tandem-mass spectrometry. The lower limit of quantification was 0.3 ng/mL.

[4] = continuous i.v. 40 min, steady-state plasma concentration 0.94 to 4.8 nmol/L, then i.v. glucose 0.5 g/kg, vs vehicle

Question: Which “area under the curve of insulin” value [1, 4] does the source give for `Cc1cc(-n2nc3c(c2-n2ccn(-c4ccc5c(cnn5C)c4F)c2=O)[C@H](C)N(C(=O)c2cc4cc([C@H]5CCOC(C)(C)C5)ccc4n2[C@@]2(c4noc(=O)[nH]4)C[C@@H]2C)CC3)cc(C)c1F` [Example Compound 67, 3-[(1S,2S)-1-[5-[(4S)-2,2-dimethyloxan-4-yl]-2-[(4S)-2-(4-fluoro-3,5-dimethylphenyl)-3-[3-(4-fluoro-1-methylindazol-5-yl)-2-oxoimidazol-1-yl]-4-methyl-6,7-dihydro-4H-pyrazolo[4,3-c]pyridine-5-carbonyl]indol-1-yl]-2-methylcyclopropyl]-4H-1,2,4-oxadiazol-5-one] here?
Answer: increase in the area under the curve of insulin

Question: What about the “area under the curve of plasma glucose” value [1, 4] of the same molecule?
Answer: decrease in the area under the curve of plasma glucose

Question: And the “plasma concentration at which insulin secretion promoting and blood glucose lowering effects are equivalent to exenatide” value ([1]; steady-state plasma concentration, i.v. infusion)?
Answer: ≥ 1.6 nmol/L

Question: And the “degree of suppression of food intake compared with control drug” value ([2]; oral 0.05 or 0.1 mg/kg vs exenatide s.c. 0.3 or 0.6 μg/kg)?
Answer: almost equivalent to the control drug exenatide

Question: What about the food intake ([2]; oral, 5 consecutive days, 0.05 or 0.1 mg/kg, food intake for 90 min from 3 h after administration) of the same molecule?
Answer: suppressed the food intake in a dosage dependent manner

Question: What about the “time after oral administration at which plasma concentrations reached Cmax” value ([3]; all dosages (0.05, 0.15, 0.45 and 1.35 mg/kg), oral) of the same molecule?
Answer: 2 h

Question: And the Cmax ([3]; 0.05 mg/kg oral)?
Answer: 4.78 ng/mL

Question: And the Tmax ([3]; 0.05 mg/kg oral)?
Answer: 2 h

Question: And the AUC(0-t) ([3]; 0.05 mg/kg oral)?
Answer: 23.7 ng·h/mL

Question: What about the Cmax ([3]; 0.15 mg/kg oral) of the same molecule?
Answer: 20.7 ng/mL

Question: What about the Tmax ([3]; 0.15 mg/kg oral) of the same molecule?
Answer: 2 h

Question: What about the AUC(0-t) ([3]; 0.15 mg/kg oral) of the same molecule?
Answer: 135 ng·h/mL

Question: What about the Cmax ([3]; 0.45 mg/kg oral) of the same molecule?
Answer: 32 ng/mL

Question: And the Tmax ([3]; 0.45 mg/kg oral)?
Answer: 2 h

Question: And the AUC(0-t) ([3]; 0.45 mg/kg oral)?
Answer: 208 ng·h/mL

Question: What about the Cmax ([3]; 1.35 mg/kg oral) of the same molecule?
Answer: 148 ng/mL

Question: What about the Tmax ([3]; 1.35 mg/kg oral) of the same molecule?
Answer: 2 h

Question: What about the AUC(0-t) ([3]; 1.35 mg/kg oral) of the same molecule?
Answer: 1040 ng·h/mL

Question: And the “absorption in the intestinal tract and elimination” value ([3]; oral 0.05 to 1.35 mg/kg)?
Answer: dose-proportionally absorbed in the intestinal tract and eliminated
